According to patent publication US11957696B2 (Propella Therapeutics, Inc., priority 2021, dated 2024):
Like-named read-outs stand apart in the source and are kept apart here.

Key:
[1] = Tissue uptake study: plasma and tissue concentrations of abiraterone and abiraterone decanoate after single IV or IM injection; format: in vivo, rats, strain CD [Crl:CD(SD)]; details: CD [Crl:CD(SD)], rat, intramuscular, 90 mg/kg
Protocol: The objective of this study is to collect tissue samples for the determination of the uptake of abiraterone decanoate and abiraterone following intravenous (IV) and intramuscular (IM; abiraterone decanoate only) injection. Additionally, blood steroid levels also were evaluated.
(§1) Vehicle for IM injection: Corn oil with 10% benzyl alcohol (w/v) and 20% benzyl benzoate (w/v). The study followed the protocols described below.
For intramuscular injections, the test article and vehicle will be administered once as a single intramuscular dose on Day 1 to animals in Groups 1 and 3. Doses will be administered via bolus intramuscular injection into the biceps femoris on the hind legs. The Test article will be warmed at 35° C. (±5°) for at least 1 hour prior to dosing. Individual doses will be based on the most recent body weights.
For IV injections, the test article will be administered once on Day 1 as a single intravenous bolus injection to animals in Groups 2 and 4. The test article will be administered via the tail vein as a bolus intravenous injection (less than 2 minutes). Individual doses will be based on the most recent body weights.
(§2) For serum steroid analysis, blood samples were collected from animals in each study group at predose and at terminal necropsy according to the following protocol. Animals were designated for 72 hr and 168 hr necropsy, the animals will be fasted overnight before scheduled blood collections. Plasma samples will be used for ACTH level analysis. Serum samples will be used for LH level analysis and steroid level analysis. Plasma samples will also be collected at various time points and be analyzed for abiraterone decanoate and abiraterone. Representative samples of tissues will be collected and snap frozen and analyzed. Lung, Liver, Adrenal glands, Prostate, Testes (Sample 1 and 2) and lymph nodes tissues will be collected. Lymph node(s) draining administration site(s): Inguinal (Groups 1-4) and Iliac (Groups 1 and 3 only). Lymph node, mandibular and Lymph node mesenteric tissues will also be collected.

CYP17A1 = target: T1, CYP17A1 (Macaca fascicularis, UniProt Q2XVA1); test: PD (progesterone, cortisol, dihydrotestosterone, testosterone levels) in chemically castrated monkeys; format: in vivo, cynomolgus monkeys
T1 construct: endogenous in cells; host or cells: live male cynomolgus monkeys (in vivo; steroidogenic tissues)
T1 sequence (Q2XVA1 1-508): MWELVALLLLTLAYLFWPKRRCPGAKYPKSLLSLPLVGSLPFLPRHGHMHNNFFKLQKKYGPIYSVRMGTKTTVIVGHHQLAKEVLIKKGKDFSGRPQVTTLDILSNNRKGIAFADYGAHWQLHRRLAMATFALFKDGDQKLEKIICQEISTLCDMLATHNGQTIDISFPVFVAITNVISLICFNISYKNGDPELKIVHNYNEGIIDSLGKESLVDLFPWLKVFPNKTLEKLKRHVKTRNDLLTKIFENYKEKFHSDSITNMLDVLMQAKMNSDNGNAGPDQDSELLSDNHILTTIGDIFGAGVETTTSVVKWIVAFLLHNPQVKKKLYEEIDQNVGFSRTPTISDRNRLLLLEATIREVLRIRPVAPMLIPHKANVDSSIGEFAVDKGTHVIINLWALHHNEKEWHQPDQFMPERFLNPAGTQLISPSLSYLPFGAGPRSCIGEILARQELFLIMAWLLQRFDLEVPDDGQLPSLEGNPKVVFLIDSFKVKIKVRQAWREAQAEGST
Source text: The effects of administering dexamethasone and methylprednisolone acetate according to the schedule of this Example were also shown in FIGS. 5A, 5B, 5C, and 5D.

CYP17 = target: T2, CYP17 (Rattus norvegicus, UniProt P11715); test: Serum steroid levels after single IV or IM injection in tissue uptake study; format: in vivo, strain CD [Crl:CD(SD)]; details: rats
T2 construct: endogenous in cells; host or cells: live CD [Crl:CD(SD)] rats (in vivo)
T2 sequence (P11715 1-507): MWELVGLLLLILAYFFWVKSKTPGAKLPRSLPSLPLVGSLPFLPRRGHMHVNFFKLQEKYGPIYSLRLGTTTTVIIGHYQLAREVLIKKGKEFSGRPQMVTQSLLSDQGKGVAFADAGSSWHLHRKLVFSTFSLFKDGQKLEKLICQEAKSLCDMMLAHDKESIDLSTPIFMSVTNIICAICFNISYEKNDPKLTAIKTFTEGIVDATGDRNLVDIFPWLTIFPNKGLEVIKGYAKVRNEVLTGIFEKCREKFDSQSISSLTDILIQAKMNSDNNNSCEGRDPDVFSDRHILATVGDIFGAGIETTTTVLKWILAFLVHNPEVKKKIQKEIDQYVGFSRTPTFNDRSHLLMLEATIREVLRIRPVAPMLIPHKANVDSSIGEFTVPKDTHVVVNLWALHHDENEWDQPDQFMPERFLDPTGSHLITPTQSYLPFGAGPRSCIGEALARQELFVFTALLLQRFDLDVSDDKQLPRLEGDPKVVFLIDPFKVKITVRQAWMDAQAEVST
Source text: as §1, §2

[2] = single intramuscular dose (90 mg/kg)

For `CCCCCCCCCC(=O)O[C@H]1CC[C@@]2(C)C(=CC[C@@H]3[C@@H]2CC[C@]2(C)C(c4cccnc4)=CC[C@@H]32)C1` [Abiraterone Decanoate, abiraterone decanoate], the concentration at 7 days ([1]; iliac lymph node, read-out: Decanoate concentration, iliac lymph) was 91000 ng/g, the concentration at 7 days ([1]; inguinal lymph node, read-out: Decanoate concentration, Inguinal Lymph) was 254 ng/g and the concentration at 7 days ([1]; liver, read-out: Decanoate concentration, Liver) was 10.4 ng/g. It also gave a concentration at 7 days ([1]; lung, read-out: Decanoate concentration, Lung) of 735 ng/g, a concentration at 7 days ([1]; male, adrenal, read-out: Decanoate concentration, Adrenal) of 12.1 ng/g and a concentration at 7 days ([1]; male, plasma, read-out: Decanoate concentration, Plasma) of 3.1 ng/mL. For the same compound, the concentration at 7 days ([1]; male, prostate, read-out: Decanoate concentration, Prostate) was 0 ng/g, the concentration at 7 days ([1]; male, testes, read-out: Decanoate concentration, Testes) was 1.3 ng/g and the “PD effects relative to abiraterone plasma concentration” value (CYP17A1; 10 mg/kg dosing group) was “prolonged PD effects were observed even after abiraterone plasma concentration dropped below 1 ng/mL”. For the same compound, the “progesterone, cortisol, dihydrotestosterone and testosterone levels” value (CYP17A1; single dose IM, all three doses) was “sustained increase of progesterone level and reduction of cortisol, dihydrotestosterone, and testosterone level”, the “duration of CYP17A1 inhibition” value (CYP17A1; single dose IM, all three doses (10, 30, 100 mg/kg)) was at least 70 days and the “circulating androgen levels (androstenedione and testosterone)” value (CYP17; [2]) was “potent reductions”. The “levels of progesterone and corticosterone” value (CYP17; [2]) was “increased” and the “sustained reduction of testosterone” value (CYP17; single intramuscular dose, last time point tested) was at least 168 h.
